Reference: the kinase profiling compilation of Christmann-Franck et al. (2016)

What was measured:
Test in all cases: KINOMEscan competition binding
Conditions in all cases: compound 10.0 µM
ACVRL1 (human) = ACVRL1 (human) (UniProt P37023)
ALK (human) = ALK (human) (UniProt Q9UM73)
AXL (human) = AXL (human) (UniProt P30530)
CDK14 (human) = CDK14 (human) (UniProt O94921)
CDK17 (human) = CDK17 (human) (UniProt Q00537)
CDKL1 (human) = CDKL1 (human) (UniProt Q00532)
CDKL5 (human) = CDKL5 (human) (UniProt O76039)
CDKL5 (human), sequence (O76039 whole entry, looked up): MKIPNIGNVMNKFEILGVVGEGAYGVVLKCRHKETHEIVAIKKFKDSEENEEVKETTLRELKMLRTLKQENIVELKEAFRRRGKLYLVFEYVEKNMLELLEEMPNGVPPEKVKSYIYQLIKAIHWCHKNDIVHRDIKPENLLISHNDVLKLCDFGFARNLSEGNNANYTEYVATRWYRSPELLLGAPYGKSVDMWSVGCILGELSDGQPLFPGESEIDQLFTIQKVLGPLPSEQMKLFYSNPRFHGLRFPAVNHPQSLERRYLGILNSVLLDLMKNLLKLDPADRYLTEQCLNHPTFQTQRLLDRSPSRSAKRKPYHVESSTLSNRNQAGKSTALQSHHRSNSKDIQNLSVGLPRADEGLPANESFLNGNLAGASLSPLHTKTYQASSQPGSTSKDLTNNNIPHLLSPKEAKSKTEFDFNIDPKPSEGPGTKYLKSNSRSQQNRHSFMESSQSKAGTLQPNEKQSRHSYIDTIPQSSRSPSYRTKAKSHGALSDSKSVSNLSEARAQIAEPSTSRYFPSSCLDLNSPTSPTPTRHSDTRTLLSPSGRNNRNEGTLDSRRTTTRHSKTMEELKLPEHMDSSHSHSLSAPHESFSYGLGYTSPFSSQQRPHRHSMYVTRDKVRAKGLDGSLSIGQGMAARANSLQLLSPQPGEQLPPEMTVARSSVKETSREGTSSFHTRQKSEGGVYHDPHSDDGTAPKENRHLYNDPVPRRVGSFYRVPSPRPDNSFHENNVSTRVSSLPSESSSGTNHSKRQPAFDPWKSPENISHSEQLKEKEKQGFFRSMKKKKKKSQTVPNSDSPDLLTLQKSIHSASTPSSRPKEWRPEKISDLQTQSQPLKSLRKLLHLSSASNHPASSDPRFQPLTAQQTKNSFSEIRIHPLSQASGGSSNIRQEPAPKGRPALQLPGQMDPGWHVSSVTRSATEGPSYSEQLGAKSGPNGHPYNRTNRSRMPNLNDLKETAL

CSNK1G1 (human) = CSNK1G1 (human) (UniProt Q9HCP0)
CSNK2A2 (human) = CSNK2A2 (human) (UniProt P19784)
CSNK2A2 (human), sequence (P19784 whole entry, looked up): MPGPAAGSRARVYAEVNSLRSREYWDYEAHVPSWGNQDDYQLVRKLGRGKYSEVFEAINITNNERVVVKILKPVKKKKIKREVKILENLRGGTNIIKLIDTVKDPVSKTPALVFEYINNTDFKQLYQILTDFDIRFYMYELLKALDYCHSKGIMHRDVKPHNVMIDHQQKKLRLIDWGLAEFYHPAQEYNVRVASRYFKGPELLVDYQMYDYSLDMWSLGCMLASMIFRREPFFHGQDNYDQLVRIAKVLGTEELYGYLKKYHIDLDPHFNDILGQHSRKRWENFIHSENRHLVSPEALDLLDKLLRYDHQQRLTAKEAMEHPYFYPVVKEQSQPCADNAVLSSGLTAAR

DAPK2 (human) = DAPK2 (human) (UniProt Q9UIK4)
[1] = system: EGFR (human), P00533 [G719S]
[2] = system: EIF2AK4 KD2 (human), Q9P2K8 [S808G]
EIF2AK4 KD2 (human), Q9P2K8 [S808G], sequence (Q9P2K8 whole entry S808G, looked up): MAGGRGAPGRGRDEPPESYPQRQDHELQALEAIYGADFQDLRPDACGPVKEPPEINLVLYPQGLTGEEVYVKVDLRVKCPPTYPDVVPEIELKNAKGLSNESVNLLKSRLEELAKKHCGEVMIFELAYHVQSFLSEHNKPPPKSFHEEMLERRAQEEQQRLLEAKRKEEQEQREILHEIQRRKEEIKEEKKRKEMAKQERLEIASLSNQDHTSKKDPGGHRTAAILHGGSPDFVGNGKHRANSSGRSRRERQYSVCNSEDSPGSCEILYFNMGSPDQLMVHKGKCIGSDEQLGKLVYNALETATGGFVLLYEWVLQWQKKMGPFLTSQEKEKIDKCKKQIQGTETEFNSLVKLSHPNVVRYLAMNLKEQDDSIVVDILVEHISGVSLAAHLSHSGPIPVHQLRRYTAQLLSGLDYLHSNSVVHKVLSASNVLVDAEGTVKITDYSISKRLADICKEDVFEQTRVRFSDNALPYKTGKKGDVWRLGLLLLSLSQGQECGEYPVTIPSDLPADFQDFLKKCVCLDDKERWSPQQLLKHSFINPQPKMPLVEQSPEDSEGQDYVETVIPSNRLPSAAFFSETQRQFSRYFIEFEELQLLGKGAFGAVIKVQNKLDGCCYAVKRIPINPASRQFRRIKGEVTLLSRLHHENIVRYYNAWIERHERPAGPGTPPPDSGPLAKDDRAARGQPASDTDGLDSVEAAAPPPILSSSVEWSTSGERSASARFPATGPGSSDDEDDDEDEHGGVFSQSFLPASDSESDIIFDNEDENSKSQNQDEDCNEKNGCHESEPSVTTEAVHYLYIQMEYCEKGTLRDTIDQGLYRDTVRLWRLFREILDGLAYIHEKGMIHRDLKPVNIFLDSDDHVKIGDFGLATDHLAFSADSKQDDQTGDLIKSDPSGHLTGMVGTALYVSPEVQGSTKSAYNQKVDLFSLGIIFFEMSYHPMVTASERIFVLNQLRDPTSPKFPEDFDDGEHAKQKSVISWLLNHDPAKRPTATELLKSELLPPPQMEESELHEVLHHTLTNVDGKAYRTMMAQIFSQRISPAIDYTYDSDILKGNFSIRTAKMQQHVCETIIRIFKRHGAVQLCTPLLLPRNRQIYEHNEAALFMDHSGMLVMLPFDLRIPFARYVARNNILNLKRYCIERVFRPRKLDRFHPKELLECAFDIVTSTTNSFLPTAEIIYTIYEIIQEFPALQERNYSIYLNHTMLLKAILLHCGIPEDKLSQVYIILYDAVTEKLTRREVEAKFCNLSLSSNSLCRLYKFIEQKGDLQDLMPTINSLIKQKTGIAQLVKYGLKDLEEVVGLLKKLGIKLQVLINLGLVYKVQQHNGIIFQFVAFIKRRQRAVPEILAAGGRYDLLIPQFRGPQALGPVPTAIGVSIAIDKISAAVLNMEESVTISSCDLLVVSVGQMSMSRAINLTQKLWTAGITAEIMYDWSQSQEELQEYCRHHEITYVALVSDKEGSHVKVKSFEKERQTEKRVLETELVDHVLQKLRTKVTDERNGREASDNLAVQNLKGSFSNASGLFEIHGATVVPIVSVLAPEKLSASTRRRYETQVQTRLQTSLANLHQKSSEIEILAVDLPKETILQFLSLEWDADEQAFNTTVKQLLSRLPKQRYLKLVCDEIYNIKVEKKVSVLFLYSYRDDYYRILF

EPHA5 (human) = EPHA5 (human) (UniProt P54756)
FGFR1 (human) = FGFR1 (human) (UniProt P11362)
FLT1 (human) = FLT1 (human) (UniProt P17948)
GSK3A (human) = GSK3A (human) (UniProt P49840)
[3] = target: JAK1 JH2 pseudokinase (human) (UniProt P23458)
[4] = target: JAK2 JH1 catalytic (human) (UniProt O60674)
KDR (human) = KDR (human) (UniProt P35968)
LYN (human) = LYN (human) (UniProt P07948)
MAP2K5 (human) = MAP2K5 (human) (UniProt Q13163)
MAP3K11 (human) = MAP3K11 (human) (UniProt Q16584)
MINK1 (human) = MINK1 (human) (UniProt Q8N4C8)
MYO3A (human) = MYO3A (human) (UniProt Q8NEV4)
NIM1 (human) = NIM1 (human) (UniProt Q8IY84)
NIM1 (human), sequence (Q8IY84 whole entry, looked up): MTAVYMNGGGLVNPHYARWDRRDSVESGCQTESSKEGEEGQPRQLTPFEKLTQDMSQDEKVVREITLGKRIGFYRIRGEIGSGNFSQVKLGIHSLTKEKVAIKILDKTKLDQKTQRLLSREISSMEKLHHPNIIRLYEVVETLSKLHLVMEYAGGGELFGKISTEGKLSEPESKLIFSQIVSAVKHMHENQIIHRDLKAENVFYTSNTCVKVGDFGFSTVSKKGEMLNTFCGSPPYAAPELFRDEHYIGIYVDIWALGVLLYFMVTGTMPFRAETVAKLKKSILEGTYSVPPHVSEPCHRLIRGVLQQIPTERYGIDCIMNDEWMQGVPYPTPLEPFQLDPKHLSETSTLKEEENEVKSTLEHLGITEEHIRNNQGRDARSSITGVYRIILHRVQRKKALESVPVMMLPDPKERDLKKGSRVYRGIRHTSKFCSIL

[5] = system: PIK3CA (human), P42336 [I800L]
PIK3CB (human) = PIK3CB (human) (UniProt P42338)
PIP4K2B (human) = PIP4K2B (human) (UniProt P78356)
PKN1 (human) = PKN1 (human) (UniProt Q16512)
PLK2 (human) = PLK2 (human) (UniProt Q9NYY3)
PLK4 (human) = PLK4 (human) (UniProt O00444)
PRKCH (human) = PRKCH (human) (UniProt P24723)
PRKD1 (human) = PRKD1 (human) (UniProt Q15139)
PRKX (human) = PRKX (human) (UniProt P51817)
RPS6KA1 KD2 (human) = RPS6KA1 KD2 (human) (UniProt Q15418)
RPS6KB1 (human) = RPS6KB1 (human) (UniProt P23443)
SIK2 (human) = SIK2 (human) (UniProt Q9H0K1)
TIE1 (human) = TIE1 (human) (UniProt P35590)
TIE1 (human), sequence (P35590 whole entry, looked up): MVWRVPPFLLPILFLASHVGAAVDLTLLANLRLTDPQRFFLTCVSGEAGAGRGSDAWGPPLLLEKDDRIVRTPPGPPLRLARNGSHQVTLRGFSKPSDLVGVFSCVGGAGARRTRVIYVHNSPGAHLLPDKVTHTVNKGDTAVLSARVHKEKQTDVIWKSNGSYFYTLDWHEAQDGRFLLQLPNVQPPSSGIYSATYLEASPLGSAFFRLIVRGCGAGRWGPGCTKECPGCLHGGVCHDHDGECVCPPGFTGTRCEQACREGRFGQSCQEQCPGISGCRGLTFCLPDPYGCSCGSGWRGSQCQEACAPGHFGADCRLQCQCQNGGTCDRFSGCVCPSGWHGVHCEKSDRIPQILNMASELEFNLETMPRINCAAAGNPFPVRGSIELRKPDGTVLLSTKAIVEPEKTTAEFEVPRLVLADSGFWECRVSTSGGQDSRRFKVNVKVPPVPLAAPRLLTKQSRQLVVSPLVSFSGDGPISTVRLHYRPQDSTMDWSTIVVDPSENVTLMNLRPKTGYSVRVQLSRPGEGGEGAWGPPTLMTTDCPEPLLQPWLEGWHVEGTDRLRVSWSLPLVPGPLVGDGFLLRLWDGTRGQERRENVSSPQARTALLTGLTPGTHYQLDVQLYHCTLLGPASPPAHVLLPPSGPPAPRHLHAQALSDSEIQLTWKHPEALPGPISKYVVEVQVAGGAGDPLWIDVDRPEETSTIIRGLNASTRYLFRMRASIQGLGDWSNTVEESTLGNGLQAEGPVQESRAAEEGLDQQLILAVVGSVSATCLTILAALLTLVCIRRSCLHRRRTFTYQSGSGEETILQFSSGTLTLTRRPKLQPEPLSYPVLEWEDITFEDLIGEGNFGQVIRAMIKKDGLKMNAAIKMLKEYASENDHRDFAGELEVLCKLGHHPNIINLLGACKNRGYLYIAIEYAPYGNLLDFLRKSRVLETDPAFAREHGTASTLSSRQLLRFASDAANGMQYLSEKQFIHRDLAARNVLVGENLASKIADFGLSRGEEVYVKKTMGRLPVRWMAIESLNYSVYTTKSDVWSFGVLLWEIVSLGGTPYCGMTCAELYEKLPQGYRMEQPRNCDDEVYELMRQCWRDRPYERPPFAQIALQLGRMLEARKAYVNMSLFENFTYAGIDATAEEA

TNK1 (human) = TNK1 (human) (UniProt Q13470)
TNK2 (human) = TNK2 (human) (UniProt Q07912)

CDKL1 (human), sequence (Q00532 whole entry, looked up): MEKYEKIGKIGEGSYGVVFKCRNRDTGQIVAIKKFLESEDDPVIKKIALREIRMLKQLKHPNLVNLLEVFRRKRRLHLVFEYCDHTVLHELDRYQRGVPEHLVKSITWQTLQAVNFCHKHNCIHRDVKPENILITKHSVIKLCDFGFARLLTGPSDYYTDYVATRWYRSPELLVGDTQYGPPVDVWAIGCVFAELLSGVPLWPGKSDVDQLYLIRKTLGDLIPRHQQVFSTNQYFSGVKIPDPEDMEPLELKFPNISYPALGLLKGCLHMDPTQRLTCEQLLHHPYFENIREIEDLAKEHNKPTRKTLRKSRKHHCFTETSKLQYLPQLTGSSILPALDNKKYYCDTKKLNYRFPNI

Row | Structure (SMILES) | kinase still bound, per cent of control (ACVRL1 (human)) | kinase still bound, per cent of control (ALK (human)) | kinase still bound, per cent of control (AXL (human)) | kinase still bound, per cent of control (CDK14 (human)) | kinase still bound, per cent of control (CDK17 (human)) | kinase still bound, per cent of control (CDKL1 (human)) | kinase still bound, per cent of control (CDKL5 (human)) | kinase still bound, per cent of control (CSNK1G1 (human)) | kinase still bound, per cent of control (CSNK2A2 (human)) | kinase still bound, per cent of control (DAPK2 (human)) | kinase still bound, per cent of control [1] | kinase still bound, per cent of control [2] | kinase still bound, per cent of control (EPHA5 (human)) | kinase still bound, per cent of control (FGFR1 (human)) | kinase still bound, per cent of control (FLT1 (human)) | kinase still bound, per cent of control (GSK3A (human)) | kinase still bound, per cent of control [3] | kinase still bound, per cent of control [4] | kinase still bound, per cent of control (KDR (human)) | kinase still bound, per cent of control (LYN (human)) | also measured
1 | Cc1ccc2nc(NCCN)c3ncc(C)n3c2c1 | 93% | 100% | 100% | 100% | 92% | 74% | 46% | 94% | 86% | 65% | 100% | 98% | 100% | 100% | 98% | 100% | 47% | 100% | 100% | 100% | kinase still bound, per cent of control (MAP2K5 (human)): 96%; kinase still bound, per cent of control (MAP3K11 (human)): 87%; kinase still bound, per cent of control (MINK1 (human)): 100%; kinase still bound, per cent of control (MYO3A (human)): 100%; kinase still bound, per cent of control (NIM1 (human)): 100%; kinase still bound, per cent of control [5]: 100%; kinase still bound, per cent of control (PIK3CB (human)): 88%; kinase still bound, per cent of control (PIP4K2B (human)): 100%; kinase still bound, per cent of control (PKN1 (human)): 92%; kinase still bound, per cent of control (PLK2 (human)): 100%; kinase still bound, per cent of control (PLK4 (human)): 90%; kinase still bound, per cent of control (PRKCH (human)): 94%; kinase still bound, per cent of control (PRKD1 (human)): 47%; kinase still bound, per cent of control (PRKX (human)): 86%; kinase still bound, per cent of control (RPS6KA1 KD2 (human)): 46%; kinase still bound, per cent of control (RPS6KB1 (human)): 96%; kinase still bound, per cent of control (SIK2 (human)): 82%; kinase still bound, per cent of control (TIE1 (human)): 100%; kinase still bound, per cent of control (TNK1 (human)): 100%; kinase still bound, per cent of control (TNK2 (human)): 100%
2 | C=CC(=O)Nc1cc(NC(=O)c2ccc(C)c(NC(=O)c3ccno3)c2)cc(C(F)(F)F)c1 | 100% | 95% | 100% | 93% | 92% | 100% | 100% | 100% | 81% | 97% | 100% | 100% | 80% | 100% | 100% | 100% | 92% | 74% | 87% | 34% | kinase still bound, per cent of control (MAP2K5 (human)): 80%; kinase still bound, per cent of control (MAP3K11 (human)): 100%; kinase still bound, per cent of control (MINK1 (human)): 84%; kinase still bound, per cent of control (MYO3A (human)): 93%; kinase still bound, per cent of control (NIM1 (human)): 98%; kinase still bound, per cent of control [5]: 93%; kinase still bound, per cent of control (PIK3CB (human)): 100%; kinase still bound, per cent of control (PIP4K2B (human)): 100%; kinase still bound, per cent of control (PKN1 (human)): 96%; kinase still bound, per cent of control (PLK2 (human)): 100%; kinase still bound, per cent of control (PLK4 (human)): 91%; kinase still bound, per cent of control (PRKCH (human)): 100%; kinase still bound, per cent of control (PRKD1 (human)): 100%; kinase still bound, per cent of control (PRKX (human)): 84%; kinase still bound, per cent of control (RPS6KA1 KD2 (human)): 100%; kinase still bound, per cent of control (RPS6KB1 (human)): 87%; kinase still bound, per cent of control (SIK2 (human)): 100%; kinase still bound, per cent of control (TIE1 (human)): 100%; kinase still bound, per cent of control (TNK1 (human)): 85%; kinase still bound, per cent of control (TNK2 (human)): 84%
3 | O=C1Nc2ccc(I)cc2/C1=C/c1cc(Br)c(O)c(Br)c1 | 100% | 100% | 100% | 95% | 87% | 84% | 92% | 69% | 3.2% | 1.9% | 84% | 78% | 91% | 77% | 100% | 100% | 0.55% | 57% | 100% | 86% | kinase still bound, per cent of control (MAP2K5 (human)): 56%; kinase still bound, per cent of control (MAP3K11 (human)): 38%; kinase still bound, per cent of control (MINK1 (human)): 2.8%; kinase still bound, per cent of control (MYO3A (human)): 2.5%; kinase still bound, per cent of control (NIM1 (human)): 100%; kinase still bound, per cent of control [5]: 61%; kinase still bound, per cent of control (PIK3CB (human)): 100%; kinase still bound, per cent of control (PIP4K2B (human)): 10%; kinase still bound, per cent of control (PKN1 (human)): 89%; kinase still bound, per cent of control (PLK2 (human)): 71%; kinase still bound, per cent of control (PLK4 (human)): 26%; kinase still bound, per cent of control (PRKCH (human)): 100%; kinase still bound, per cent of control (PRKD1 (human)): 100%; kinase still bound, per cent of control (PRKX (human)): 100%; kinase still bound, per cent of control (RPS6KA1 KD2 (human)): 12%; kinase still bound, per cent of control (RPS6KB1 (human)): 81%; kinase still bound, per cent of control (SIK2 (human)): 84%; kinase still bound, per cent of control (TIE1 (human)): 86%; kinase still bound, per cent of control (TNK1 (human)): 100%; kinase still bound, per cent of control (TNK2 (human)): 74%
